Source: PubChem BioAssay AID1963834 (Molecular Pharmacology Branch, DTP, NCI, 2024)

System: 873145-292-R-J1-PDC complex spheroid viability
Test: Anticancer human tumor 873145-292-R-J1-PDC patient-derived renal clear cell carcinoma cell line growth inhibition [POLQ]
Settings: for IC50: curve of first compound; for viability, T/C: stronger effect = lower value
Summary of the method: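 Growth inhibition in 3D: complex spheroids (tumor PDC, HUVEC, MSC) treated with POLQ inhibitor combinations; where Cmax unknown, highest tested concentration 10 microM, except SN-38 at 1 microM.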

[1] = second compound 0.0316 µM, first compound 0.0316 µM
[2] = second compound 0.0316 µM, first compound 0.1 µM
[3] = second compound 0.0316 µM, first compound 0.316 µM
[4] = second compound 0.0316 µM, first compound 1 µM
[5] = second compound 0.0316 µM, first compound 3.16 µM
[6] = second compound 0.0316 µM, first compound 10 µM
[7] = second compound 0.1 µM, first compound 0.0316 µM
[8] = second compound 0.1 µM, first compound 0.1 µM
[9] = second compound 0.1 µM, first compound 0.316 µM
[10] = second compound 0.1 µM, first compound 1 µM
[11] = second compound 0.1 µM, first compound 3.16 µM
[12] = second compound 0.1 µM, first compound 10 µM
[13] = second compound 0.316 µM, first compound 0.0316 µM
[14] = second compound 0.316 µM, first compound 0.1 µM
[15] = second compound 0.316 µM, first compound 0.316 µM
[16] = second compound 0.316 µM, first compound 1 µM
[17] = second compound 0.316 µM, first compound 3.16 µM
[18] = second compound 0.316 µM, first compound 10 µM
[19] = second compound 1 µM, first compound 0.0316 µM
[20] = second compound 1 µM, first compound 0.1 µM
[21] = second compound 1 µM, first compound 0.316 µM
[22] = second compound 1 µM, first compound 1 µM
[23] = second compound 1 µM, first compound 3.16 µM
[24] = second compound 1 µM, first compound 10 µM
[25] = second compound 3.16 µM, first compound 0.0316 µM
[26] = second compound 3.16 µM, first compound 0.1 µM
[27] = second compound 3.16 µM, first compound 0.316 µM
[28] = second compound 3.16 µM, first compound 1 µM
[29] = second compound 3.16 µM, first compound 3.16 µM
[30] = second compound 3.16 µM, first compound 10 µM
[31] = second compound 10 µM, first compound 0.0316 µM
[32] = second compound 10 µM, first compound 0.1 µM
[33] = second compound 10 µM, first compound 0.316 µM
[34] = second compound 10 µM, first compound 1 µM
[35] = second compound 10 µM, first compound 3.16 µM
[36] = second compound 10 µM, first compound 10 µM
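Further: spheroids exposed to compounds for 7 days before viability readout.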
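Wherever viability, T/C is given: luminescence signal used as surrogate for viable cell content; 100% = DMSO vehicle control viability.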

CCCS(=O)(=O)Nc1ccc(F)c(C(=O)c2c[nH]c3ncc(-c4ccc(Cl)cc4)cc23)c1F + Cc1cccc(N(C)C(=O)C2C(O)CCN2c2nc(C)cc(C(F)(F)F)c2C#N)c1
IC50 (second compound 0.0316 µM): > 10 µM
IC50 (second compound 0.1 µM): > 10 µM
IC50 (second compound 0.316 µM): > 10 µM
IC50 (second compound 1 µM): > 10 µM
IC50 (second compound 3.16 µM): > 10 µM
IC50 (second compound 10 µM): > 10 µM
viability, T/C [1]: 115%
viability, T/C [2]: 110%
viability, T/C [3]: 113%
viability, T/C [4]: 118%
viability, T/C [5]: 89.9%
viability, T/C [6]: 79.3%
viability, T/C [7]: 105%
viability, T/C [8]: 106%
viability, T/C [9]: 90.8%
viability, T/C [10]: 121%
viability, T/C [11]: 105%
viability, T/C [12]: 67.6%
viability, T/C [13]: 117%
viability, T/C [14]: 125%
viability, T/C [15]: 94.4%
viability, T/C [16]: 112%
viability, T/C [17]: 97.4%
viability, T/C [18]: 80.6%
viability, T/C [19]: 98.6%
viability, T/C [20]: 102%
viability, T/C [21]: 103%
viability, T/C [22]: 106%
viability, T/C [23]: 105%
viability, T/C [24]: 68.6%
viability, T/C [25]: 101%
viability, T/C [26]: 111%
viability, T/C [27]: 109%
viability, T/C [28]: 107%
viability, T/C [29]: 105%
viability, T/C [30]: 83.8%
viability, T/C [31]: 103%
viability, T/C [32]: 101%
viability, T/C [33]: 96.1%
viability, T/C [34]: 109%
viability, T/C [35]: 96.8%
viability, T/C [36]: 81.1%

CCc1cc2c(N3CCc4c(cc(Cn5ccnc5)cc4-c4cn(C)nc4C(F)(F)F)C3=O)cc(C)nc2c(OC)n1 + Cc1cccc(N(C)C(=O)C2C(O)CCN2c2nc(C)cc(C(F)(F)F)c2C#N)c1
IC50 (second compound 0.0316 µM): > 10 µM
IC50 (second compound 0.1 µM): > 10 µM
IC50 (second compound 0.316 µM): > 10 µM
IC50 (second compound 1 µM): > 10 µM
IC50 (second compound 3.16 µM): > 10 µM
IC50 (second compound 10 µM): > 10 µM
viability, T/C [1]: 99.1%
viability, T/C [2]: 99.8%
viability, T/C [3]: 102%
viability, T/C [4]: 77.3%
viability, T/C [5]: 105%
viability, T/C [6]: 83.2%
viability, T/C [7]: 97.1%
viability, T/C [8]: 99.8%
viability, T/C [9]: 80.5%
viability, T/C [10]: 90.5%
viability, T/C [11]: 93.9%
viability, T/C [12]: 89.8%
viability, T/C [13]: 97.4%
viability, T/C [14]: 102%
viability, T/C [15]: 76.1%
viability, T/C [16]: 97.5%
viability, T/C [17]: 84.2%
viability, T/C [18]: 87.4%
viability, T/C [19]: 93%
viability, T/C [20]: 86.5%
viability, T/C [21]: 91.4%
viability, T/C [22]: 79.4%
viability, T/C [23]: 102%
viability, T/C [24]: 70.2%
viability, T/C [25]: 90.7%
viability, T/C [26]: 87.4%
viability, T/C [27]: 87.5%
viability, T/C [28]: 96.7%
viability, T/C [29]: 77.2%
viability, T/C [30]: 89.6%
viability, T/C [31]: 89.1%
viability, T/C [32]: 102%
viability, T/C [33]: 93.1%
viability, T/C [34]: 88.5%
viability, T/C [35]: 76.7%
viability, T/C [36]: 81.6%

COc1cc2cc(C(=O)CCC(=O)O)sc2cc1OC + Cc1cccc(N(C)C(=O)C2C(O)CCN2c2nc(C)cc(C(F)(F)F)c2C#N)c1
IC50 (second compound 0.0316 µM): > 10 µM
IC50 (second compound 0.1 µM): > 10 µM
IC50 (second compound 0.316 µM): > 10 µM
IC50 (second compound 1 µM): > 10 µM
IC50 (second compound 3.16 µM): > 10 µM
IC50 (second compound 10 µM): > 10 µM
viability, T/C [1]: 103%
viability, T/C [2]: 106%
viability, T/C [3]: 111%
viability, T/C [4]: 105%
viability, T/C [5]: 101%
viability, T/C [6]: 104%
viability, T/C [7]: 97.9%
viability, T/C [8]: 115%
viability, T/C [9]: 96.9%
viability, T/C [10]: 92.1%
viability, T/C [11]: 98.8%
viability, T/C [12]: 107%
viability, T/C [13]: 98.3%
viability, T/C [14]: 110%
viability, T/C [15]: 95.1%
viability, T/C [16]: 96.1%
viability, T/C [17]: 93.5%
viability, T/C [18]: 97.6%
viability, T/C [19]: 101%
viability, T/C [20]: 98.7%
viability, T/C [21]: 94%
viability, T/C [22]: 100%
viability, T/C [23]: 95.6%
viability, T/C [24]: 103%
viability, T/C [25]: 89%
viability, T/C [26]: 117%
viability, T/C [27]: 102%
viability, T/C [28]: 99.4%
viability, T/C [29]: 98.4%
viability, T/C [30]: 101%
viability, T/C [31]: 98.2%
viability, T/C [32]: 95.9%
viability, T/C [33]: 102%
viability, T/C [34]: 97.7%
viability, T/C [35]: 104%
viability, T/C [36]: 103%

COc1ccc([C@@H](O)c2cc(-c3ncnc4cc(N5CCOCC5)ccc34)c(F)cc2Cl)nn1 + Cc1cccc(N(C)C(=O)C2C(O)CCN2c2nc(C)cc(C(F)(F)F)c2C#N)c1
IC50 (second compound 0.0316 µM): 5.23 µM
IC50 (second compound 0.1 µM): 7.85 µM
IC50 (second compound 0.316 µM): 4.08 µM
IC50 (second compound 1 µM): 6.45 µM
IC50 (second compound 3.16 µM): 4.83 µM
IC50 (second compound 10 µM): 5.89 µM
viability, T/C [1]: 107%
viability, T/C [2]: 92.1%
viability, T/C [3]: 81.5%
viability, T/C [4]: 66.6%
viability, T/C [5]: 56.9%
viability, T/C [6]: 42.5%
viability, T/C [7]: 105%
viability, T/C [8]: 95.3%
viability, T/C [9]: 75.9%
viability, T/C [10]: 73.1%
viability, T/C [11]: 64.7%
viability, T/C [12]: 44.4%
viability, T/C [13]: 96%
viability, T/C [14]: 88.5%
viability, T/C [15]: 76.3%
viability, T/C [16]: 65.2%
viability, T/C [17]: 55.8%
viability, T/C [18]: 37.5%
viability, T/C [19]: 112%
viability, T/C [20]: 88.2%
viability, T/C [21]: 85.6%
viability, T/C [22]: 72.5%
viability, T/C [23]: 56.1%
viability, T/C [24]: 45%
viability, T/C [25]: 93.5%
viability, T/C [26]: 85.1%
viability, T/C [27]: 91%
viability, T/C [28]: 71.6%
viability, T/C [29]: 57.4%
viability, T/C [30]: 39.2%
viability, T/C [31]: 96.8%
viability, T/C [32]: 82.1%
viability, T/C [33]: 80.2%
viability, T/C [34]: 71.2%
viability, T/C [35]: 58.1%
viability, T/C [36]: 42.4%
